Assay results: patent US12503461B2, “Pesticidally active heterocyclic derivatives with sulfur and sulfoximine containing substituents” (SYNGENTA CROP PROTECTION AG, priority 2019, dated 2025)

Tests used:
Format in all cases: in vivo
[1] = system: Euschistus heros (Neotropical Brown Stink Bug); experiment: Example B2: Euschistus heros (neotropical brown stink bug), sprayed soybean leaves, N2 nymphs; conditions: 120 h, application rate of 200 ppm, 5 days after infestation, in comparison to untreated samples, read-out: effect in at least one of the two categories (mortality or growth inhibition)
Method: Example B2: Euschistus heros (Neotropical Brown Stink Bug
Soybean leaves on agar in 24-well microtiter plates were sprayed with aqueous test solutions prepared from 10′000 ppm DMSO stock solutions. After drying the leaves were infested with N2 nymphs. The samples were assessed for mortality and growth inhibition in comparison to untreated samples 5 days after infestation.

[2] = system: Bemisia tabaci (Cotton White Fly); experiment: Example B6: Bemisia tabaci (cotton white fly), feeding/contact activity, sprayed cotton leaf discs; conditions: foliar, 144 h, application rate of 200 ppm, adult white flies, 6 days after incubation
Method: Example B6: Bemisia tabaci (Cotton White Fly). Feeding/Contact Activity
Cotton leaf discs were placed on agar in 24-well microtiter plates and sprayed with aqueous test solutions prepared from 10′000 ppm DMSO stock solutions. After drying the leaf discs were infested with adult white flies. The samples were checked for mortality 6 days after incubation.

[3] = system: Diabrotica balteata (Corn Root Worm); experiment: Example B1: Diabrotica balteata (corn root worm), sprayed maize sprouts on agar, L2 larvae; conditions: 96 h, application rate of 200 ppm, 4 days after infestation, in comparison to untreated samples, read-out: effect in at least one of the two categories (mortality or growth inhibition)
Method: Example B1: Diabrotica balteata (Corn Root Worm
Maize sprouts placed onto an agar layer in 24-well microtiter plates were treated with aqueous test solutions prepared from 10′000 ppm DMSO stock solutions by spraying. After drying, the plates were infested with L2 larvae (6 to 10 per well). The samples were assessed for mortality and growth inhibition in comparison to untreated samples 4 days after infestation.

[4] = system: Myzus persicae (Green Peach Aphid); experiment: Example B5: Myzus persicae (green peach aphid), feeding/contact activity, sprayed sunflower leaf discs; conditions: foliar, 144 h, application rate of 200 ppm, aphid population of mixed ages, 6 days after infestation
Method: Example B5: Myzus persicae (Green Peach Aphid). Feeding/Contact Activity
Sunflower leaf discs were placed onto agar in a 24-well microtiter plate and sprayed with aqueous test solutions prepared from 10′000 ppm DMSO stock solutions. After drying, the leaf discs were infested with an aphid population of mixed ages. The samples were assessed for mortality 6 days after infestation.

[5] = system: Spodoptera littoralis (Egyptian Cotton Leaf Worm); experiment: Example B7: Spodoptera littoralis (Egyptian cotton leaf worm), sprayed cotton leaf discs, L1 larvae; conditions: foliar, 72 h, application rate of 200 ppm, 3 days after infestation, in comparison to untreated samples
Method in brief: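 Cotton leaf discs on agar were sprayed with aqueous test solutions made from 10′000 ppm DMSO stocks, dried, and infested with five L1 larvae. Mortality, anti-feeding and growth inhibition were scored against untreated samples 3 days after infestation; control means any category exceeds the untreated sample.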

[6] = system: Frankliniella occidentalis (Western Flower Thrips); experiment: Example B3: Frankliniella occidentalis (western flower thrips), sprayed sunflower leaf discs; conditions: foliar, 168 h, application rate of 200 ppm, population of mixed ages, 7 days after infestation
Method: Example B3: Frankliniella occidentalis (Western Flower Thrips
Sunflower leaf discs were placed on agar in 24-well microtiter plates and sprayed with aqueous test solutions prepared from […] stock solutions. After drying the leaf discs were infested with a Frankliniella population of mixed ages. The samples were assessed for mortality 7 days after infestation.

[7] = system: Plutella xylostella (Diamond Back Moth); experiment: Example B4: Plutella xylostella (diamond back moth), treated artificial diet, eggs; conditions: 192 h, application rate of 200 ppm, 8 days after infestation, in comparison to untreated samples, read-out: effect in at least one of the two categories (mortality or growth inhibition)
Method: Example B4: Plutella xylostella (Diamond Back Moth
24-well microtiter plates with artificial diet were treated with aqueous test solutions prepared from 10′000 ppm DMSO stock solutions by pipetting. After drying, Plutella eggs were pipetted through a plastic stencil onto a gel blotting paper and the plate was closed with it. The samples were assessed for mortality and growth inhibition in comparison to untreated samples 8 days after infestation.

[8] = system: Myzus persicae (Green Peach Aphid); experiment: Example B8: Myzus persicae (green peach aphid), systemic activity, pea seedling roots in test solution; conditions: 144 h, test rate of 24 ppm, aphid population of mixed ages, 6 days after placing seedlings into test solutions
Method: Example B8: Myzus persicae (Green Peach Aphid). Systemic Activity
Roots of pea seedlings infested with an aphid population of mixed ages were placed directly into aqueous test solutions prepared from 10′000 DMSO stock solutions. The samples were assessed for mortality 6 days after placing seedlings into test solutions.

[9] = system: Chilo suppressalis (Striped Rice Stemborer); experiment: Example B9: Chilo suppressalis (striped rice stemborer), treated artificial diet, L2 larvae; conditions: 144 h, application rate of 200 ppm, 6 days after infestation, in comparison to untreated samples, read-out: control (mortality, anti-feeding effect, or growth inhibition)
Method: Example B9: Chilo suppressalis (Striped Rice Stemborer
24-well microtiter plates with artificial diet were treated with aqueous test solutions prepared from 10′000 ppm DMSO stock solutions by pipetting. After drying, the plates were infested with L2 larvae (6-8 per well). The samples were assessed for mortality, anti-feeding effect, and growth inhibition in comparison to untreated samples 6 days after infestation. Control of Chilo suppressalis by a test sample is given when at least one of the categories mortality, anti-feedant effect, and growth inhibition is higher than the untreated sample.

CCS(=O)(=O)c1cc(N=S(C)(C)=O)cnc1-c1nc2cc(S(=N)(=O)C(F)(F)F)ccc2o1 (stereo not drawn) [P1, [2-[5-[[dimethyl(oxo)-λ^6-sulfanylidene]amino]-3-ethylsulfonyl-2-pyridyl]-1,3-benzoxazol-5-yl]-imino-oxo-(trifluoromethyl)-λ^6-sulfane]
≥ 80%: effect (mortality or growth inhibition) at 200 ppm [1] | mortality at 200 ppm [2] | percent effect (mortality or growth inhibition) at 200 ppm [3] | mortality at 200 ppm [4] | percent control (mortality, anti-feeding effect or growth inhibition) at 200 ppm [5] | mortality at 200 ppm [6] | percent effect (mortality or growth inhibition) at 200 ppm [7]

CCS(=O)(=O)c1cc(C2(C#N)CC2)cnc1-c1nc2cc(S(=N)(=O)C(F)(F)F)ccc2o1 (stereo not drawn) [P7, 1-[5-ethylsulfonyl-6-[5-(trifluoromethylsulfonimidoyl)-1,3-benzoxazol-2-yl]-3-pyridyl]cyclopropanecarbonitrile]
≥ 80%: effect (mortality or growth inhibition) at 200 ppm [1] | mortality at 200 ppm [2] | percent effect (mortality or growth inhibition) at 200 ppm [3] | percent control (mortality, anti-feeding effect or growth inhibition) at 200 ppm [5] | percent effect (mortality or growth inhibition) at 200 ppm [7]

CCS(=O)(=O)c1cccnc1-c1nc2cc(S(=O)(=NC(C)=O)C(F)(F)F)ccc2o1 (stereo not drawn) [P17, N-[[2-(3-ethylsulfonyl-2-pyridyl)-1,3-benzoxazol-5-yl]-oxo-(trifluoromethyl)-λ^6-sulfanylidene]acetamide]
≥ 80%: effect (mortality or growth inhibition) at 200 ppm [1] | mortality at 200 ppm [2] | percent effect (mortality or growth inhibition) at 200 ppm [3] | mortality at 200 ppm [4] | percent control (mortality, anti-feeding effect or growth inhibition) at 200 ppm [5] | percent effect (mortality or growth inhibition) at 200 ppm [7]

CCN=S(=O)(c1cnc2c(c1)nc(-c1ncc(C3(C#N)CC3)cc1S(=O)(=O)CC)n2C)C(F)(F)F (stereo not drawn) [P20, 1-[5-ethylsulfonyl-6-[6-[N-ethyl-S-(trifluoromethyl)sulfonimidoyl]-3-methyl-imidazo[4,5-b]pyridin-2-yl]-3-pyridyl]cyclopropanecarbonitrile]
≥ 80%: effect (mortality or growth inhibition) at 200 ppm [1] | percent effect (mortality or growth inhibition) at 200 ppm [3] | mortality at 200 ppm [4] | percent control (mortality, anti-feeding effect or growth inhibition) at 200 ppm [5] | mortality at 24 ppm [8] | mortality at 200 ppm [6] | percent effect (mortality or growth inhibition) at 200 ppm [7]

CCS(=O)(=O)c1cc(C2(C#N)CC2)cnc1-c1nc2cc(S(=N)(=O)C(F)(F)F)cnc2n1C (stereo not drawn) [P21, 1-[5-ethylsulfonyl-6-[3-methyl-6-(trifluoromethylsulfonimidoyl)imidazo[4,5-b]pyridin-2-yl]-3-pyridyl]cyclopropanecarbonitrile]
≥ 80%: effect (mortality or growth inhibition) at 200 ppm [1] | percent effect (mortality or growth inhibition) at 200 ppm [3] | mortality at 200 ppm [4] | percent control (mortality, anti-feeding effect or growth inhibition) at 200 ppm [5] | mortality at 24 ppm [8] | mortality at 200 ppm [6] | percent effect (mortality or growth inhibition) at 200 ppm [7]

CCN=S(=O)(c1ccc2c(c1)nc(-c1ncc(C3(C#N)CC3)cc1S(=O)(=O)CC)n2C)C(F)(F)F (stereo not drawn) [P32, 1-[5-ethylsulfonyl-6-[5-[N-ethyl-S-(trifluoromethyl)sulfonimidoyl]-1-methyl-benzimidazol-2-yl]-3-pyridyl]cyclopropanecarbonitrile]
≥ 80%: effect (mortality or growth inhibition) at 200 ppm [1] | percent effect (mortality or growth inhibition) at 200 ppm [3] | percent control (mortality, anti-feeding effect or growth inhibition) at 200 ppm [5] | mortality at 24 ppm [8] | percent effect (mortality or growth inhibition) at 200 ppm [7]

CCS(=O)(=O)c1cc(C2(C#N)CC2)cnc1-c1nc2cc(S(=N)(=O)C(F)(F)F)ccc2n1C (stereo not drawn) [P33, 1-[5-ethylsulfonyl-6-[1-methyl-5-(trifluoromethylsulfonimidoyl)benzimidazol-2-yl]-3-pyridyl]cyclopropanecarbonitrile]
≥ 80%: effect (mortality or growth inhibition) at 200 ppm [1] | mortality at 200 ppm [2] | percent effect (mortality or growth inhibition) at 200 ppm [3] | percent control (mortality, anti-feeding effect or growth inhibition) at 200 ppm [5] | percent effect (mortality or growth inhibition) at 200 ppm [7]

CCS(=O)(=O)c1cc(C2(C#N)CC2)cnc1-c1nc2cc(S(=O)(=NCC(F)(F)F)C(F)(F)F)ccc2n1C (stereo not drawn) [P34, 1-[5-ethylsulfonyl-6-[1-methyl-5-[N-(2,2,2-trifluoroethyl)-S-(trifluoromethyl)sulfonimidoyl]benzimidazol-2-yl]-3-pyridyl]cyclopropanecarbonitrile]
≥ 80%: effect (mortality or growth inhibition) at 200 ppm [1] | mortality at 200 ppm [2] | percent effect (mortality or growth inhibition) at 200 ppm [3] | percent control (mortality, anti-feeding effect or growth inhibition) at 200 ppm [5] | percent effect (mortality or growth inhibition) at 200 ppm [7]

CCS(=O)(=O)c1cc(C2(C#N)CC2)cnc1-c1nc2cc(S(=O)(=NCC(F)(F)F)C(F)(F)F)cnc2n1C (stereo not drawn) [P57, 1-[5-ethylsulfonyl-6-[3-methyl-6-[N-(2,2,2-trifluoroethyl)-S-(trifluoromethyl)sulfonimidoyl]imidazo[4,5-b]pyridin-2-yl]-3-pyridyl]cyclopropanecarbonitrile]
≥ 80%: percent control (mortality, anti-feedant effect or growth inhibition) at 200 ppm [9] | mortality at 200 ppm [2] | percent effect (mortality or growth inhibition) at 200 ppm [3] | mortality at 200 ppm [4] | percent control (mortality, anti-feeding effect or growth inhibition) at 200 ppm [5] | mortality at 200 ppm [6] | percent effect (mortality or growth inhibition) at 200 ppm [7]

CCS(=O)(=O)c1cc(C2(C#N)CC2)cnc1-c1nc2cc(S(=O)(=NC3CC3)C(F)(F)F)cnc2n1C (stereo not drawn) [P58, 1-[6-[6-[N-cyclopropyl-S-(trifluoromethyl)sulfonimidoyl]-3-methyl-imidazo[4,5-b]pyridin-2-yl]-5-ethylsulfonyl-3-pyridyl]cyclopropanecarbonitrile]
≥ 80%: percent control (mortality, anti-feedant effect or growth inhibition) at 200 ppm [9] | effect (mortality or growth inhibition) at 200 ppm [1] | mortality at 200 ppm [2] | percent effect (mortality or growth inhibition) at 200 ppm [3] | percent control (mortality, anti-feeding effect or growth inhibition) at 200 ppm [5] | percent effect (mortality or growth inhibition) at 200 ppm [7]
